From US20190134039A1, “ANTIVIRAL JAK INHIBITORS USEFUL IN TREATING OR PREVENTING RETROVIRAL AND OTHER VIRAL INFECTIONS” (EMORY UNIVERSITY, priority 2011, published 2019)

Assays:
[1] = test system: HIV-1 containing A62V/V75I/F77L/F116Y/Q151M; assay: microbe, parasite or virus in culture; assay type: cell-based
PBM cells = assay: cells; details: Homo sapiens, PBMC, read-out: IC50 in PBM cells *Propidium Iodide assay
pSTAT3 = assay: cells
[2] = test system: PHA+IL-2 stimulated primary human lymphocytes; assay: Proliferation and viability of PHA+IL-2 stimulated primary human lymphocytes; assay type: cell-based; details: PHA+IL-2 stimulated lymphocytes, 5 days
Protocol: The effect of various Jak inhibitors on proliferation and viability of PHA or PHA+IL-2 stimulated primary human lymphocytes was evaluated using the techniques described above.
For all experiments, cells were incubated with media alone or drug-containing medium for 5 days prior to assessment of cell count and viability. Data are mean and standard deviations for at least three independent experiments conducted with at least 4 pooled donors, and duplicates within each experiment.

HIV-2 = assay: microbe, parasite or virus in culture; details: Human immunodeficiency virus 2, PBMC
pSTAT1 = assay: cells
Vero cells = assay: cells; details: Chlorocebus sabaeus, read-out: IC50 in Vero cells *MTT Assay
HIV-1LAI = assay: microbe, parasite or virus in culture; details: Human immunodeficiency virus 1, PBMC, in Homo sapiens
Text: PBM cells were isolated as follows: Lymphocytes were isolated from buffy coats derived from healthy donors obtained from Life South Laboratories (Dunwoody, Ga.). Activated lymphocytes were maintained for 72 hrs in medium that was supplemented with […] phytohemagglutinin (PHA) (Cape Cod associates, East Falmouth, Mass.). Media was comprised of RPMI media supplemented with 20% fetal calf serum, 1% penicillin/streptomyocin and 2% L-glutamine (Sigma Aldrich, San Jose, Calif.).
PBM cell infections: Testing was performed in duplicate with at least 3 independent assays. Cells were incubated in RPMI medium (HyClone, Logan, Utah) containing HR-IL2 (26.5 units/ml) and 20% fetal calf serum. Infections were performed by adding HIV-1LA1 followed by a further incubation at 37° C., 5% CO2, 1 hr prior to addition of drugs. Assays were performed in 24 well plates (BD Biosciences, Franklin Lakes, N.J.). One ml of supernatant was collected after 5 days in culture and then centrifuged at 12,000 rpm for 2 hr at 4° C. in a Jouan Br43i (Thermo Electron Corp., Marietta, Ohio). The product of the RT assay was quantified using a Packard harvester and direct beta counter and the data were analyzed as previously described (Schinazi et al, 1990).

latent HIV-1 [3] = assay: Reactivation of latent HIV-1 in primary human macrophages (PMA, p24 ELISA); assay type: cell-based; details: drug applied during reactivation, removed thereafter, within 72 hr post reactivation
HIV-1 containing K65R = assay: microbe, parasite or virus in culture; assay type: cell-based
wild-type HIV-1xxLAI = assay: Antiviral potency in primary human lymphocytes, wild type; assay type: cell-based; details: Human immunodeficiency virus 1, Lymphocyte, xxLAI, primary human lymphocytes
HIV-1BaL = assay: microbe, parasite or virus in culture; details: Human immunodeficiency virus 1, Macrophage, in Homo sapiens
Protocol: Macrophages were isolated as follows: Monocytes were isolated from buffy coats of HIV-1 negative, HBV/HCV-negative donors with density gradient centrifugation coupled with enrichment for CD14+ monocytes with Rosette Sep antibody cocktail (Stem Cell Technologies, Vancouver, British Columbia). Cells were seeded at a concentration of 1.0×10^6 cells/well for 1 hr at 37° C. and 5% CO2 to confer plastic adherence prior to repeated washes with 1×PBS. Macrophages were maintained in medium containing 100 U/ml macrophage colony-stimulating factor (m-CSF, R&D Systems, Minneapolis, Minn.), supplemented with 20% fetal calf serum (Atlanta Biologicals, Lawrenceville, Ga.) and 1% penicillin/streptomyocin (Invitrogen, Carlsbad, Calif.) for 7 days (37° C., 5% CO2) prior to testing.
Macrophage infections: Macrophages were cultured as described above for 7 days. […] 4 hrs after infection, virus was removed and drug-containing medium was returned to the cultures. Supernatants were collected on day 7 post-infection and HIV-1 p24 was quantified via ELISA (Zeptometrix Corporation, Buffalo, N.Y.). EC50 analysis was performed using CalcuSyn software (BioSoft Corporation, Cambridge, UK).

latent HIV-1 [4] = assay: Reactivation of latent HIV-1, J-Lat latency T cell system; assay type: cell-based; details: concentrations found during steady-state or Cmax in vivo
HIV-1 containing M184V = assay: microbe, parasite or virus in culture; assay type: cell-based
activated PBM cells = assay type: cell-based, human
Text: The data is shown in FIG. 2, in terms of total cell number (10^6 cells) versus aM drug in medium.
The data is shown in FIG. 3, in terms of cell viability (%) versus aM drug in medium.

PHA stimulated PBM cells = assay: cells; details: Homo sapiens, PBMC, read-out: IC50 in PHA stimulated PBM cells *MTT Assay
CEM cells = assay: cells; details: Homo sapiens, CCRF-CEM, read-out: IC50 in CEM cells *MTT Assay
Mφ = assay: cells; details: Homo sapiens, read-out: IC50 in Mφ *MTT Assay
[5] = Human immunodeficiency virus 1, Lymphocyte

## N#CC[C@H](C1CCCC1)n1cc(-c2ncnc3[nH]ccc23)cn1 [Jakafi, Ruxolitinib]
[1]; A62V/V75I/F77L/F116Y/Q151M
  FI50 (ratio of EC50 against mutant virus:EC50 against wild-type xxLAI): 0.1
  FI90 (ratio of EC90 against mutant virus:EC90 against wild-type xxLAI): 0.3
[1]; [5]
  EC50: 30 ± 20 nM
  EC90: 1500 ± 1500 nM
PBM cells
  IC50: > 50000 nM
pSTAT3; read-out: EC50 pSTAT3
  EC50: < 10 nM
pSTAT3; read-out: EC90 pSTAT3
  EC90: 10 nM
[2]; 1.0 μM
  proliferation versus cells exposed to media alone: significantly inhibited
[2]; all concentrations
  viability versus cells exposed to media alone: not significantly different
HIV-2; read-out: Anti-HIV-2 EC50 in acutely infected PBM cells
  EC50: 20 ± 10 nM
HIV-2; read-out: Anti-HIV-2 EC90 in acutely infected PBM cells
  EC90: 400 ± 200 nM
pSTAT1; read-out: EC50 pSTAT1
  EC50: < 10 nM
pSTAT1; read-out: EC90 pSTAT1
  EC90: < 10 nM
Vero cells
  IC50: 29300 ± 3700 nM
HIV-1LAI; read-out: Anti-HIV-1 EC50 in acutely infected PBM cells
  EC50: 100 ± 20 nM
HIV-1LAI; read-out: Anti-HIV-1 EC90 in acutely infected PBM cells
  EC90: 4700 ± 70 nM
Latent HIV-1 [3]
  percent inhibition of reactivation of latent HIV-1 versus no drug control: ~35%
HIV-1 containing K65R; [5]
  EC50: 200 ± 300 nM
  EC90: 8500 ± 8100 nM
HIV-1 containing K65R; K65R
  FI50 (ratio of EC50 against mutant virus:EC50 against wild-type xxLAI): 0.8
  FI90 (ratio of EC90 against mutant virus:EC90 against wild-type xxLAI): 1.4
wild-type HIV-1xxLAI; read-out: EC50
  EC50: 300 ± 300 nM
wild-type HIV-1xxLAI; read-out: EC90
  EC90: 6100 ± 7600 nM
HIV-1BaL; read-out: Anti-HIV-1 EC50 in acutely infected MΦ
  EC50: 300 ± 100 nM
HIV-1BaL; read-out: Anti-HIV-1 EC90 in acutely infected MΦ
  EC90: 3100 ± 1800 nM
Latent HIV-1 [4]
  inhibition of reactivation of latent HIV-1: ≥ 50%
HIV-1 containing M184V; [5]
  EC90: 3200 ± 2300 nM
HIV-1 containing M184V; M184V
  FI50 (ratio of EC50 against mutant virus:EC50 against wild-type xxLAI): 1.3
  FI90 (ratio of EC90 against mutant virus:EC90 against wild-type xxLAI): 0.5
Activated PBM cells
  total cell proliferation (total cell number): do not affect total cell proliferation
  total cell viability: do not affect total cell viability
PHA stimulated PBM cells
  IC50: 9100 ± 1300 nM
CEM cells
  IC50: 11800 ± 1100 nM
Mφ
  IC50: > 100000 nM
